The values below come from PubChem BioAssay (NCI).

Where “and” joins values, the source holds several entries; their conditions need not be identical. Identical values can stand only once.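 Compound exposure: 48 hours, 5 concentrations, 96-well plates. Abbreviation: GI50, concentration required for 50% inhibition of growth. Definition used: TGI = concentration required for complete inhibition of growth.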 Bounds are passed on as bounds.

Assay in all cases: NCI-60 cell line screen, 48 h
The subject of test [1] is BT-549 breast.
Test [2] has as its system COLO 205 colon.
The test system of test [3] is HCC-2998 colon.
Test [4] concerns HCT-15 colon.
Test [5] concerns HOP-92 NSCLC.
The test system of test [6] is KM20L2 colon.
For test [7], the system named is LXFL 529 NSCLC.
In test [8] the test system is MALME-3M melanoma.
Test [9] concerns MOLT-4 leukemia.
Test [10] concerns NCI-H460 lung.

Consider `COc1cccc2c1[C@H]1CO[C@H]3C4C[C@H](C(=O)O)C([C@@H](C2)N13)N4C` (some centres not stated), for which the TGI in test [1] is 0.339 µM; in [2], 2.58 µM and 2.41 µM; in [3], 8.08 µM and 1.2 µM; in test [4], 6.12 µM; in [5], 4.55 µM and 3.22 µM; in [6] it was 7.84 µM. The TGI is 4.98 µM in test [7]; 4.8 µM and 1.6 µM in test [8]; over 38.2 µM in test [10]. The GI50 in test [2] is 0.515 µM; in test [3], 0.593 µM; in test [5], 0.684 µM; in test [8], 0.696 µM; in test [9], 0.45 µM; in test [10] it was 1.36 µM.
Regarding `Cn1nnc2c(C(N)=O)ncn2c1=O`, the TGI in test [1], in test [2], in test [3], in test [4], in test [5] and in test [6] was over 100 µM throughout. Also, the TGI in test [7], in test [8], in [9] and in test [10] was over 100 µM in each case.
As for `COCCOCOC(C)(C)[C@H](CCOC(C)=O)O[Si](c1ccccc1)(c1ccccc1)C(C)(C)C`, the TGI in test [2] was 13.7 µM; in test [3] it was 26 µM; in test [4], over 100 µM; in [5] it was 27.9 µM; in test [6] it was over 100 µM; in test [7], over 100 µM. Besides, the TGI in test [8] was 55.3 µM; in test [9], 19.1 µM; in test [10], 24.1 µM.
With `O=C(O)[C@@H](NS(=O)(=O)c1ccc2ccccc2c1)c1ccccc1`, the TGI in test [2], in test [3], in test [4], in [5], in [6] and in [7] was over 100 µM in each case. In addition, the TGI in test [8], in test [9] and in test [10] was over 100 µM each time.
With `Cc1ccc(NC(=O)CC2SC(N)=NC2=O)cc1C` (configuration not stated), the TGI in test [2], in test [3], in [4], in test [5], in test [6] and in test [7] was over 100 µM each time. In addition, the TGI in test [8], in test [9] and in [10] was over 100 µM each time.
For the compound `CN1CCc2c1nc(-c1cccnc1)c1c2N(C)CC1`, the TGI in test [2], in test [3], in test [4], in [5], in [6] and in [7] was over 100 µM each time. Also, the TGI in [8], in test [9] and in [10] was over 100 µM in each case.
On to `O=C(N/C(=C\c1cc(Cl)ccc1Cl)c1nc2ccc(Cl)cc2[nH]1)c1ccccc1`, for which the TGI stood at 33.6 µM in test [2]; 32.4 µM in [3]; 31 µM in test [4]; 24.4 µM in [5]; 32.2 µM in test [6]; 28.1 µM in test [7]. The TGI is 35.8 µM in [8], 37.2 µM in test [9] and 30.5 µM in [10].
Turning to `COC(=O)C#CCC1CCCC1C1SCCS1` (configuration not stated), the TGI in test [2], in test [3], in [5], in test [6], in [7] and in test [8] was over 100 µM in each case. This compound also gave a TGI in [9] of 75.6 µM.
On to `CCN(CC)CCCC(C)Nc1c(Sc2cnc3cc(Cl)ccc3c2NC(C)CCCN(CC)CC)cnc2cc(Cl)ccc12` (configuration not stated), for which the TGI in test [2] was 2.88 µM; in [3], 1.14 µM; in test [4], 3.16 µM; in test [5], 4.07 µM; in test [6] it was 3.09 µM; in test [7], 3.38 µM. The figures for the TGI in test [8], in test [9] and in test [10] were 3.71 µM, 4.57 µM and 3.23 µM, respectively.
`COC/N=C(/N)NC#N`: the TGI in test [2] is 39.2 µM; in test [3], over 100 µM; in test [4], 31 µM; in [5] it was over 100 µM; in test [6] it was over 100 µM; in [7], over 100 µM. Moreover, the TGI in test [8], in [9] and in [10] was over 100 µM each time.
As to `C#C[C@H]1CCCCCC1O` (some centres not stated), the TGI in [2], in test [3], in test [4], in [5], in [6] and in test [7] was over 100 µM in each case. In addition, the TGI in test [8], in [9] and in [10] was over 100 µM each time.
`O=C(CCc1nc(=S)[nH][nH]1)Nc1cccc(C(F)(F)F)c1`: the TGI in [2], in test [3], in [4], in [5], in test [6] and in test [7] was over 100 µM in each case. For the same compound, the TGI in [8], in [9] and in test [10] was over 100 µM throughout.
On to `N.N.N.N.N.O=S(=O)([O-])C(F)(F)F.O=S(=O)([O-])C(F)(F)F.[Os+8]`, for which the GI50 in test [2] was 10.9 µM; in [3] it was 7.02 µM; in [4] it was 17 µM; in [5], 14.8 µM; in [6], 20.7 µM; in [7], 9.12 µM. For the same compound, the GI50 in [8] was 4.53 µM; in test [9], 0.876 µM; in test [10] it was 5.21 µM. For the same compound, the TGI in test [2] was 25.4 µM; in test [3], 20.2 µM; in [4] it was 56.4 µM; in test [5], 35.8 µM; in test [6], 45.3 µM; in [7], 23.8 µM. Also, the TGI in test [8] was 19.9 µM; in [9], 14.7 µM; in test [10], over 100 µM.
On to `COC(=O)/C(C#N)=C1\CCc2ccccc21`, for which the TGI in [2], in [3], in test [4], in test [5], in [6] and in test [7] was over 100 µM in each case. In addition, the TGI in test [8], in test [9] and in [10] was over 100 µM in each case.
On to `Nc1ccc(C(=O)N/C(=C\c2cccc([N+](=O)[O-])c2)c2nc3ccc(Cl)cc3[nH]2)cc1`, for which the TGI in [2] was over 100 µM; in [3], over 100 µM; in test [4], over 100 µM; in test [5], 75.8 µM; in test [6] it was over 100 µM; in test [7], over 100 µM. Moreover, the TGI in test [8] and in [9] was over 100 µM each time.
Turning to `COc1ccc(Cc2nc3ccccc3s2)cc1OC`, the TGI in test [2] worked out at 27.7 µM; in [3] it was 49 µM; in test [4], 60.7 µM; in [5], 36.5 µM; in [6], 36.5 µM; in [7], 31.4 µM. The figures for the TGI in test [8], in test [9] and in test [10] were 32.6 µM, 63.9 µM and 38.3 µM, respectively.
For `O=C(O)COc1ccc(C(=O)/C(SS/C(C(=O)c2ccc(OCC(=O)O)c(Cl)c2Cl)=C2\C=C(c3ccc(Br)cc3)SS2)=C2/C=C(c3ccc(Br)cc3)SS2)c(Cl)c1Cl`, the TGI is 67.3 µM in test [1]; 14.9 µM in test [2]; over 42.8 µM in test [3]; over 40.9 µM in [4]; 16 µM in [5]; over 100 µM in test [6]. Further, the TGI is 8.98 µM in [7], 41.9 µM in test [8], 15 µM in test [9] and over 71.8 µM in test [10].
